From US20230310445A1, “LOX ENZYME INHIBITING METHODS AND COMPOSITIONS” (ANOVIA BIOSCIENCES, INC., priority 2020, published 2023)

Biological target: T1, Bovine lysyl oxidase (LOX) (Bos taurus, UniProt P33072)
T1 construct: from tissue; host or cells: adult bovine tendon
T1 sequence (P33072 170-418): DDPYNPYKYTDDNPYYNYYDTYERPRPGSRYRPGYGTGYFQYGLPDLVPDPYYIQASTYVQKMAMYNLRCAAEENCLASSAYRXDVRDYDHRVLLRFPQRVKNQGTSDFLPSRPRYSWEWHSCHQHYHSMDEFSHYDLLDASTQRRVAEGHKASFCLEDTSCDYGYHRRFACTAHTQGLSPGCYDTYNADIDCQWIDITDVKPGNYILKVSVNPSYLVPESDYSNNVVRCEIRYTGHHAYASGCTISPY
Assay: LOX inhibition assay (fluorometric, cadaverine/Amplex Red/HRP)
Format: biochemical
Settings: IC50 class; bovine tendon LOX, cadaverine substrate; read-out: Activity Range LOX
Summary of the method: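 Bovine tendon-extracted LOX was preincubated 30 min at 37 °C with compound. Cadaverine/Amplex Red/HRP was then added and fluorescence (ex530/em600) monitored for 120 min at 37 °C. Progress-curve slopes, background-subtracted against no-protein wells, were normalised to DMSO controls and fitted with a four-parameter variable-slope dose-response model.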

Row | SMILES | IC50 [µM]
1 | CS(=O)(=O)[C@H]1C[C@@H](S(=O)(=O)c2cccc(CN)c2)CN(c2ccccc2)C1 (racemic) [Example 23, cis-(3-((-5-(Methylsulfonyl)-1-phenylpiperidin-3-yl)sulfonyl)phenyl)methanamine] | > 30
2 | CN(C)C(=O)N1C[C@@H](c2ccccc2)C[C@@H](S(=O)(=O)c2cccc(CN)c2)C1.O=C(O)C(F)(F)F (racemic) [Example 74, cis-3-((3-(Aminomethyl)phenyl)sulfonyl)-N,N-dimethyl-5-phenylpiperidine-1-carboxamide 2,2,2-trifluoroacetate] | > 30
3 | NCc1ccc(S(=O)(=O)N2C[C@H](C(=O)N3CCS(=O)(=O)CC3)C[C@@H](c3ccccc3)C2)s1.O=C(O)C(F)(F)F (racemic) [Example 75B, trans-(1-((5-(Aminomethyl)thiophen-2-yl)sulfonyl)-5-phenylpiperidin-3-yl)(1,1-dioxidothiomorpholino)methanone 2,2,2-trifluoroacetate] | ≤ 0.5
4 | CS(=O)(=O)[C@H]1C[C@@H](S(=O)(=O)c2cccc(CN)c2)CN(c2ccccc2F)C1 (racemic) [Example 92, cis-(3-((-1-(2-Fluorophenyl)-5-(methylsulfonyl)piperidin-3-yl)sulfonyl)phenyl)methanamine 2,2,2-trifluoroacetate] | > 30
5 | NCc1ccc(S(=O)(=O)N2C[C@@H](C(=O)N3CCOCC3)C[C@@H](C3CCCCC3)C2)s1.O=C(O)C(F)(F)F (racemic) [Example 120, cis-(1-((5-(Aminomethyl)thiophen-2-yl)sulfonyl)-5-cyclohexylpiperidin-3-yl)(morpholino)methanone 2,2,2-trifluoroacetate] | ≤ 0.5
6 | NCc1cccc(S(=O)(=O)N2C[C@@H](C(=O)N3CCOCC3)C[C@@H](C3CCCCC3)C2)c1 (racemic) [Example 139, cis-(1-((3-(Aminomethyl)phenyl)sulfonyl)-5-cyclohexylpiperidin-3-yl)(morpholino)methanone] | > 30
7 | CN(C)C(=O)[C@H]1C[C@@H](C2CCCCC2)CN(S(=O)(=O)c2cc(CN)ccn2)C1 (racemic) [Example 144, cis-1-((4-(Aminomethyl)pyridin-2-yl)sulfonyl)-5-cyclohexyl-N,N-dimethylpiperidine-3-carboxamide 2,2,2-trifluoroacetate] | 1 to 30
8 | NCc1ccnc(S(=O)(=O)N2C[C@@H](C(=O)N3CCOCC3)C[C@@H](C3CCCCC3)C2)c1 (racemic) [Example 145, cis-(1-((4-(Aminomethyl)pyridin-2-yl)sulfonyl)-5-cyclohexylpiperidin-3-yl)(morpholino)methanone 2,2,2-trifluoroacetate] | 1 to 30
9 | NCc1ccnc(S(=O)(=O)N2C[C@@H](C(=O)N3CCS(=O)(=O)CC3)C[C@@H](C3CCCCC3)C2)c1.O=C(O)C(F)(F)F (racemic) [Example 146, cis-(1-((4-(Aminomethyl)pyridin-2-yl)sulfonyl)-5-cyclohexylpiperidin-3-yl)(1,1-dioxidothiomorpholino)methanone 2,2,2-trifluoroacetate] | 1 to 30
10 | NCc1ccnc(S(=O)(=O)N2C[C@@H](C(=O)N3CCOCC3)C[C@@H](c3ccccc3)C2)c1 (relative stereo) [Example 133, cis-(1-((4-(Aminomethyl)pyridin-2-yl)sulfonyl)-5-phenylpiperidin-3-yl)(morpholino)methanone 2,2,2-trifluoroacetate] | 1 to 30
11 | NCc1ccnc(S(=O)(=O)N2C[C@@H](C(=O)N3CCOCC3)C[C@@H](c3ccccc3)C2)c1 [Example 133A, ((3S,5S)-1-((4-(aminomethyl)pyridin-2-yl)sulfonyl)-5-phenylpiperidin-3-yl)(morpholino)methanone 2,2,2-trifluoroacetate] | 1 to 30

The next lines start with the values.

Row | IC50 [µM] | SMILES
12 | > 30 | CS(=O)(=O)N1C[C@H](Oc2cccc(CN)c2)C[C@H](c2ccccc2F)C1 (racemic) [Example 70, cis-(3-((5-(2-Fluorophenyl)-1-(methylsulfonyl)piperidin-3-yl)oxy)phenyl)methanamine 2,2,2-trifluoroacetate]
13 | > 30 | CS(=O)(=O)[C@@H]1C[C@@H](S(=O)(=O)c2cccc(CN)c2)CN(c2ccccc2)C1 (racemic) [Example 79, trans-(3-((-5-(Methylsulfonyl)-1-phenylpiperidin-3-yl)sulfonyl)phenyl)methanamine]
14 | > 30 | NCc1cccc(S(=O)(=O)N2C[C@H](C(=O)N3CCS(=O)(=O)CC3)C[C@@H](c3ccccc3)C2)c1 (racemic) [Example 85, trans-(1-((3-(Aminomethyl)phenyl)sulfonyl)-5-phenylpiperidin-3-yl)(1,1-dioxidothiomorpholino)methanone 2,2,2-trifluoroacetate]
15 | ≤ 0.5 | CS(=O)(=O)N1CCN(C(=O)[C@H]2C[C@@H](c3ccccc3F)CN(S(=O)(=O)c3ccc(CN)s3)C2)CC1.O=C(O)C(F)(F)F (racemic) [Example 91, cis-(1-((5-(Aminomethyl)thiophen-2-yl)sulfonyl)-5-(2-fluorophenyl)piperidin-3-yl)(4-(methylsulfonyl)piperazin-1-yl)methanone 2,2,2-trifluoroacetate]
16 | > 30 | NCc1cccc(S(=O)(=O)N2C[C@H](C(=O)N3CCS(=O)(=O)CC3)C[C@@H](c3ccccc3)C2)n1 (racemic) [Example 115T, trans-(1-((6-(Aminomethyl)pyridin-2-yl)sulfonyl)-5-phenylpiperidin-3-yl)(1,1-dioxidothiomorpholino)methanone 2,2,2-trifluoroacetate]
17 | 1 to 30 | NCc1ccnc(S(=O)(=O)N2C[C@@H](C(=O)N3CCS(=O)(=O)CC3)C[C@@H](c3ccccc3)C2)c1 (racemic) [Example 134, cis-(1-((4-(Aminomethyl)pyridin-2-yl)sulfonyl)-5-phenylpiperidin-3-yl)(1,1-dioxidothiomorpholino)methanone 2,2,2-trifluoroacetate]
18 | > 30 | NCc1cccc(S(=O)(=O)N2C[C@@H](C(=O)N3CCS(=O)(=O)CC3)C[C@@H](C3CCCCC3)C2)c1 (racemic) [Example 140, cis-(1-((3-(Aminomethyl)phenyl)sulfonyl)-5-cyclohexylpiperidin-3-yl)(1,1-dioxidothiomorpholino)methanone]
19 | > 30 | CN(C)C(=O)[C@H]1C[C@@H](C2CCCCC2)CN(S(=O)(=O)c2cccc(CN)c2)C1 (relative stereo) [Example 138, cis-1-((3-(Aminomethyl)phenyl)sulfonyl)-5-cyclohexyl-N,N-dimethylpiperidine-3-carboxamide 2,2,2-trifluoroacetate]
20 | ≤ 0.5 | NCc1ccc(S(=O)(=O)N2C[C@H](C(=O)N3CCOCC3)C[C@H](c3ccccc3)C2)s1 [Example 13B, ((3R,5R)-1-((5-(aminomethyl)thiophen-2-yl)sulfonyl)-5-phenylpiperidin-3-yl)(morpholino)methanone]
21 | 1 to 30 | NCc1ccnc(S(=O)(=O)N2C[C@H](C(=O)N3CCOCC3)C[C@H](c3ccccc3)C2)c1 [Example 133B, ((3R,5R)-1-((4-(aminomethyl)pyridin-2-yl)sulfonyl)-5-phenylpiperidin-3-yl)(morpholino)methanone 2,2,2-trifluoroacetate]
